Experiment: Increased percentage of formazan production in drug treated virus infected cells to equal 50% control drug free uninfected cells on serotype 14

SMILES | EC50
CCOC(=O)/C=C/[C@H](C[C@@H]1CCNC1=O)NC(=O)[C@H](Cc1ccc(F)cc1)NC(=O)[C@@H](NC(=O)c1cc(C)on1)C(C)C [AG7088 analogue 2a] | 10 nM
CCOC(=O)/C=C/[C@H](C[C@@H]1CCNC1=O)NC(=O)[C@H](Cc1ccccc1)NC(=O)[C@@H](NC(=O)OCc1ccccc1)C(C)C [ethyl (2E,4S)-4-[(2S)-2-[(2S)-2-{[(benzyloxy)carbonyl]amino}-3-methylbutanamido]-3-phenylpropanamido]-5-[(3S)-2-oxopyrrolidin-3-yl]pent-2-enoate] | 30 nM
CCOC(=O)/C=C/[C@H](CN1CCNC1=O)NC(=O)[C@H](Cc1ccccc1)NC(=O)[C@H](CC(C)C)NC(=O)OCc1ccccc1 [(E)-(R)-4-[(S)-2-((S)-2-Benzyloxycarbonylamino-4-methyl-pentanoylamino)-3-phenyl-propionylamino]-5-(2-oxo-imidazolidin-1-yl)-pent-2-enoic acid ethyl ester] | 600 nM
CCOC(=O)/C=C/[C@H](CCC(=O)NC)NC(=O)[C@H](Cc1ccccc1)NC(=O)[C@H](CC(C)C)NC(=O)OCc1ccccc1 [(E)-(S)-4-[(S)-2-((S)-2-Benzyloxycarbonylamino-4-methyl-pentanoylamino)-3-phenyl-propionylamino]-6-methylcarbamoyl-hex-2-enoic acid ethyl ester] | 5600 nM
CCOC(=O)/C=C/[C@H](C[C@@H]1CCNC1=O)NC(=O)[C@H](Cc1ccc(F)cc1)NC(=O)[C@@H](NC(=O)c1cc(C)on1)C(C)(C)C [(E)-(S)-4-[(S)-2-{(S)-3,3-Dimethyl-2-[(5-methyl-isoxazole-3-carbonyl)-amino]-butyrylamino}-3-(4-fluoro-phenyl)-propionylamino]-5-((S)-2-oxo-pyrrolidin-3-yl)-pent-2-enoic acid ethyl ester] | 10 nM
CCOC(=O)/C=C/[C@H](C[C@@H]1CCCNC1=O)NC(=O)[C@H](Cc1ccc(F)cc1)NC(=O)[C@@H](NC(=O)c1cc(C)on1)C(C)C [(E)-(S)-4-((S)-3-(4-Fluoro-phenyl)-2-{(S)-3-methyl-2-[(5-methyl-isoxazole-3-carbonyl)-amino]-butyrylamino}-propionylamino)-5-((S)-2-oxo-piperidin-3-yl)-pent-2-enoic acid ethyl ester] | 20 nM
CCOC(=O)/C=C/[C@H](C[C@@H]1CCCNC1=O)NC(=O)[C@H](Cc1ccccc1)NC(=O)[C@H](CC(C)C)NC(=O)OCc1ccccc1 [(E)-(S)-4-[(S)-2-((S)-2-Benzyloxycarbonylamino-4-methyl-pentanoylamino)-3-phenyl-propionylamino]-5-((S)-2-oxo-piperidin-3-yl)-pent-2-enoic acid ethyl ester] | 30 nM
CCOC(=O)/C=C/[C@H](C[C@@H]1CCCNC1=O)NC(=O)[C@@H](CC(=O)[C@@H](NC(=O)c1cc(C)on1)C(C)C)Cc1ccc(F)cc1 [(E)-(S)-4-{(2R,5S)-2-(4-Fluoro-benzyl)-6-methyl-5-[(5-methyl-isoxazole-3-carbonyl)-amino]-4-oxo-heptanoylamino}-5-((S)-2-oxo-piperidin-3-yl)-pent-2-enoic acid ethyl ester] | 1 nM
CCOC(=O)/C=C/[C@H](CCC(=O)N(C)C)NC(=O)[C@H](Cc1ccccc1)NC(=O)[C@H](CC(C)C)NC(=O)OCc1ccccc1 [(E)-(S)-4-[(S)-2-((S)-2-Benzyloxycarbonylamino-4-methyl-pentanoylamino)-3-phenyl-propionylamino]-6-dimethylcarbamoyl-hex-2-enoic acid ethyl ester] | 4000 nM

Experiment: The EC50 was calculated as the concentration of drug that increased the percentage of formazan production in drug treated, virus infected cells to 50% of that produced by drug free uninfected cells on serotype 2.

SMILES | EC50
CCOC(=O)/C=C/[C@H](CCC(N)=O)NC(=O)[C@H](Cc1ccccc1)NC(=O)[C@H](CC(C)C)NC(=O)OCc1ccccc1 [(E)-(S)-4-[(S)-2-((S)-2-Benzyloxycarbonylamino-4-methyl-pentanoylamino)-3-phenyl-propionylamino]-6-carbamoyl-hex-2-enoic acid ethyl ester] | 1600 nM

Source: BindingDB's records for doi:10.1021/jm9805384 (Agouron Pharmaceuticals, 1999)
